Measured values: US7550613B2, “Compounds” (Pronova Biopharma Norge AS, priority 2005, dated 2009)

Assay: Effect of DHA derivatives in adipose prone mice during 4 months of dietary interventions (Example 5a)
Type: in vivo, male C57BL/6 mice
Conditions: for Body wt. gain / Body weight / NEFA / Insulin / TAGs: 4 months; for Body weight: * = significant vs cHF (P<0.05); for AUCglucose: intraperitoneal glucose tolerance test; for NEFA: non-esterified fatty acids; for Insulin: plasma; for TAGs: serum triglycerides
Method: All experiments were performed on male C57BL/6 mice, either a substrain C57BL/N (supplier: Charles River, Germany, n=160, experiments A-C, see below), or a substrain C57BL/6J (supplier: the Jackson laboratory, Bar Harbor, Me., USA, n=32, experiment D). Total numbers of animals used were higher (n=170 and 36, respectively), because of culling. In the latter case, animals were bred for several generations (<20) at the Institute of Physiology. At the beginning of the treatment, animals were 14-week-old and their body weight range was 23.6-27.1 g. One week before the study start, animals were sorted according to their body weight and assigned to subgroups (n=8) of similar mean body weight. This method allowed for culling of about 5-10% of animals showing the lowest and highest body weight, respectively. The animals eliminated from the study at this stage were sacrificed by cervical dislocation. Complete health check of mice was performed by the supplier Charles River and at the start of study serological tests were performed by ANLAB (Prague, Czech Republic). In addition, regular health checks were performed in the animal house in 3-mo-intervals using sentinel mice and serological examinations (ANLAB). In all the tests, the animals were free of specific pathogens.
• (i) Chow diet (ssniff R/M-H from SSNIFF Spezialdieten Gmbh, Soest, Germany; see also http://ssniff.de) with protein, fat and carbohydrate forming 33, 9, and 58 energy %, respectively • (ii) High-fat diet prepared in the laboratory (cHF diet) with protein, fat and carbohydrate forming 15, 59, and 26 energy %, respectively, and well characterized fatty acid composition (with most of the lipids coming from corn oil; see Ruzickova 2004) • (iii) cHF diets in which 0.15, 0.5, and 1.5% of fat (specifically the corn oil constituent) was replaced by various PRB-compounds, namely PRB1, PRB2, PRB5, PRB7, and PRB8, or by DHA. All these compounds were in the form of ethyl esters, provided by Pronova Biocare a.s. in sealed containers. Chemical composition of the PRB-compounds was unknown to the laboratory performing the experiments (Institute of Physiology, Academy of Sciences Prague, Czech Republic).
The study was based on 4 individual experiments. In each of the experiments, different PRB-compounds (or DHA, respectively) admixed to cHF diet in three different concentrations (0.15, 0.5, and 1.5% of the fat content) were tested. In each experiment, a subgroup of plain cHF diet-fed mice was included and served as a control. Mice were caged in groups of 4 and fed standard chow diet until 3 mo of age, when animals (n=8-13) were randomly assigned to the different test diets. After 2 mo on this new diet (at 5 mo of age), animals were fasted overnight and in the morning, intraperitoneal Glucose Tolerance Test (GTT) was performed. Animals were sacrificed after 4 months on the experimental diets, at 7 mo of age, and the end-point analysis were performed.

For `CC/C=C\C/C=C\C/C=C\C/C=C\C/C=C\C/C=C\CC(SCC)C(=O)OCC` (stereo not drawn) [PRB-7, α-tioethyl docosahexaenoic acid ethyl ester], the Fasted glucose (0.15% concentration) was 141 ± 9 mg/dL, the Fasted glucose (0.5% concentration) was 152 ± 6 mg/dL and the Fasted glucose (1.5% concentration) was 120 ± 9 mg/dL. The “Body wt. gain” value (0.15% concentration) was 23.2 ± 0.7 grams, the Body weight (0.15% concentration) was 47.4 ± 0.8* grams and the Body wt. gain (0.5% concentration) was 24.8 ± 0.8 grams. The Body weight (0.5% concentration) was 48.8 ± 0.9 grams, the Body wt. gain (1.5% concentration) was 21.7 ± 0.9 grams and the Body weight (1.5% concentration in cHF diet) was 45.9 ± 1.1* grams. For the same compound, the AUCglucose (0.15% concentration) was 1425 ± 97 mM × 180 min, the AUCglucose (0.5% concentration) was 1674 ± 203 mM × 180 min and the AUCglucose (1.5% concentration) was 1122 ± 73 mM × 180 min. The NEFA (0.15% concentration) was 0.85 ± 0.06 mmol/L, the NEFA (0.5% concentration) was 0.87 ± 0.04 mmol/L and the NEFA (1.5% concentration) was 0.82 ± 0.06 mmol/L. It also gave an Insulin (0.15% concentration) of 3.76 ± 0.72 ng/mL, an Insulin (0.5% concentration) of 4.10 ± 0.57 ng/mL and an Insulin (1.5% concentration) of 4.42 ± 0.87 ng/mL. The TAGs (0.15% concentration) was 1.41 ± 0.11 mmol/L, the TAGs (0.5% concentration) was 1.42 ± 0.08 mmol/L and the TAGs (1.5% concentration) was 1.15 ± 0.08 mmol/L.
